As usually defined, the IC50 is the concentration needed to halve the response being measured. A lower IC50 goes with greater potency in that assay.

From US20070015723A1, “Antiviral oligonucleotides having a conserved G4 core sequence” (priority 1992, published 2007) come the findings set out here.

Series [1] relates to Naja naja naja phospholipase A2.
Series [2] deals with phospholipase A2 from Agkistrodon piscivorus piscivorus.

Consider “ISIS 3196: GGG T GGG T ATA G AAG G GCT CC, P = S, SEQ ID NO 47 (GGGTGGGTATAGAAGGGCTCC; all phosphorothioate, sugars by position and methylation of C not given here)”, for which the 50% inhibitory concentration (IC50) was above 10000 nM in series [1] and around 3000 nM in series [2].
